{"source": "patent US20080125432A1", "about": "(Devgen NV, priority 2004, published 2008)", "target": "T1, human Kv4.3/KChIP2.2 potassium channel (Homo sapiens, UniProt Q9UK17)", "T1 construct": "expressed in transfected cells", "T1 sequence (Q9UK17 1-655)": "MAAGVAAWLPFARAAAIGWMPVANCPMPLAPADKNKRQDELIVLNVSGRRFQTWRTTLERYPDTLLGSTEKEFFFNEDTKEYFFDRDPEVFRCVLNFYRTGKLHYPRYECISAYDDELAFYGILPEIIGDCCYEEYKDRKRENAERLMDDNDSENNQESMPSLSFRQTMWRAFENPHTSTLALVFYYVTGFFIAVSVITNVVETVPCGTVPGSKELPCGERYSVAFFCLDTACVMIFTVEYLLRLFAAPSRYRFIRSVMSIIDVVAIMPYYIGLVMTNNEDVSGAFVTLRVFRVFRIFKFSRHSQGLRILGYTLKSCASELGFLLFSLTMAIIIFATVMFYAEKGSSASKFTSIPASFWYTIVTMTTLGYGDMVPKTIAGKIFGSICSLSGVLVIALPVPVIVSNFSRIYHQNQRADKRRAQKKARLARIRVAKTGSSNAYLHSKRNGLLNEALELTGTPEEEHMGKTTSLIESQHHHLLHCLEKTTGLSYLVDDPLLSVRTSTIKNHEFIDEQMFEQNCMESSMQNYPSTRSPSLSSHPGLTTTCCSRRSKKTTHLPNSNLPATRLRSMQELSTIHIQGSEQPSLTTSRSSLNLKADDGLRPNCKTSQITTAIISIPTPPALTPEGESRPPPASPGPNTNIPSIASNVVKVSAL", "test": "Whole cell patch clamp, CHO-K1 cells stably expressing human Kv4.3/KChIP2.2", "format": "cell-based", "conditions": "for remaining activity at 1 µM: CHO-K1", "key": {"[1]": {"conditions": "remaining current measured after application of the compound and relative to the blank, read-out: Kv4.3 charge in %"}, "[2]": {"conditions": "remaining peak height measured after application of the compound and relative to the blank, read-out: Kv4.3 peak in %"}, "[3]": {"conditions": "estimated by Hill fit with hill=1, ymax=100, tested at 2 μM, n=2, read-out: IC50 (μM) Kv4.3"}, "[4]": {"conditions": "Kv4.3 mediated current, charge, patch clamp, read-out: Kv4.3 charge IC50"}}, "note": "Like-named read-outs stand apart in the source and are kept apart here."}
{"compound": "COc1ccccc1Nc1nc(C)c(C(=O)NCc2ccccc2SC)s1", "note": "[Compound 97]", "values": [{"measurement": "remaining activity at 1 µM", "setting": "[1]", "result": 66, "unit": "%"}, {"measurement": "remaining activity at 1 µM", "setting": "[2]", "result": 96, "unit": "%"}]}
{"compound": "COc1ccc(CNC(=O)c2sc(Nc3ccc(Br)cc3)nc2C)cc1", "note": "[Compound 60, 2-(4-bromo-phenylamino)-4-methyl-thiazole-5-carboxylic acid 4-methoxy-benzylamide]", "values": [{"measurement": "IC50", "setting": "[3]", "result": 0.39, "unit": "µM"}]}
{"compound": "Cc1nc(NC(=O)c2ccc(C(C)(C)C)cc2)sc1C(=O)N[C@H]1CCC[C@@H]1OCc1ccccc1", "note": "[Compound 180, 2-(4-tert-butyl-benzoylamino)-4-methyl-thiazole-5-carboxylic acid ((1S,2S)-2-benzyloxycyclopent-1-yl) amide]", "values": [{"measurement": "remaining activity at 1 µM", "setting": "[1]", "result": 73, "unit": "%"}, {"measurement": "remaining activity at 1 µM", "setting": "[2]", "result": 97, "unit": "%"}]}
{"compound": "COc1ccccc1Nc1nc(C)c(C(=O)NCc2ccc3c(c2)CCO3)s1", "note": "[Compound 104, 2-(2-methoxy-phenylamino)-4-methyl-thiazole-5-carboxylic acid (2,3-dihydro-benzofuran-5-ylmethyl)-amide]", "values": [{"measurement": "remaining activity at 1 µM", "setting": "[1]", "result": 77, "unit": "%"}, {"measurement": "remaining activity at 1 µM", "setting": "[2]", "result": 93, "unit": "%"}]}
{"compound": "COc1ccccc1Nc1nc(C)c(C(=O)NCc2c(C)cccc2Cl)s1", "note": "[Compound 98, 2-(2-methoxy-phenylamino)-4-methyl-thiazole-5-carboxylic acid 2-chloro-6-methyl-benzylamide]", "values": [{"measurement": "remaining activity at 1 µM", "setting": "[1]", "result": 59, "unit": "%"}, {"measurement": "remaining activity at 1 µM", "setting": "[2]", "result": 90, "unit": "%"}]}
{"compound": "COc1ccccc1Nc1nc(C)c(C(=O)N[C@H]2CCC[C@@H]2OCc2ccccc2)s1", "note": "[Compound 68, 2-(2-methoxy-phenylamino)-4-methyl-thiazole-5-carboxylic acid (1S,2S)-2-(benzyloxycyclopent-1-yl) amide]", "values": [{"measurement": "IC50", "setting": "[3]", "result": 0.54, "unit": "µM"}]}
{"compound": "2-(4-bromo-phenylamino)-4-methyl-thiazole-5-carboxylic acid 1,2,3,4-tetrahydroisoquinolinamide [Compound 66]", "values": [{"measurement": "IC50", "setting": "[4]", "result": 0.34, "unit": "µM"}, {"measurement": "IC50", "setting": "[3]", "result": 0.34, "unit": "µM"}]}
{"compound": "Cc1nc(Nc2ccc(Cl)cc2)sc1C(=O)N[C@H](C)c1ccc2ccccc2c1", "note": "[Compound 52, 2-(4-chloro-phenylamino)-4-methyl-thiazole-5-carboxylic acid (R)-1-(2-naphtalen-2-yl-ethyl)-amide]", "values": [{"measurement": "IC50", "setting": "[4]", "result": 0.34, "unit": "µM"}, {"measurement": "IC50", "setting": "[3]", "result": 0.34, "unit": "µM"}]}
{"compound": "COc1ccc(OC)c(Nc2nc(C)c(C(=O)N[C@@H]3CCC[C@H]3OCc3ccccc3)s2)c1", "note": "[Compound 33, 2-(2,5-dimethoxyphenylamino)-4-methylthiazole-5-carboxylic acid (1R,2R)-2-(benzyloxycyclopent-1-yl) amide]", "values": [{"measurement": "IC50", "setting": "[3]", "result": 3.35, "unit": "µM"}]}
{"compound": "COc1ccccc1Nc1nc(C)c(C(=O)NCc2ccc(C(C)(C)C)cc2)s1", "note": "[Compound 106, 2-(2-methoxy-phenylamino)-4-methyl-thiazole-5-carboxylic acid 4-tert-butyl-benzylamide]", "values": [{"measurement": "remaining activity at 1 µM", "setting": "[1]", "result": 58, "unit": "%"}, {"measurement": "remaining activity at 1 µM", "setting": "[2]", "result": 98, "unit": "%"}]}
{"compound": "COc1ccccc1Nc1nc(C)c(C(=O)NCc2ccc(Br)cc2)s1", "note": "[Compound 108, 2-(2-methoxy-phenylamino)-4-methyl-thiazole-5-carboxylic acid 4-bromo-benzylamide]", "values": [{"measurement": "remaining activity at 1 µM", "setting": "[1]", "result": 59, "unit": "%"}, {"measurement": "remaining activity at 1 µM", "setting": "[2]", "result": 82, "unit": "%"}]}
{"compound": "Cc1nc(Nc2ccc(Br)cc2)sc1C(=O)NCc1cccc2ccccc12", "note": "[Compound 56, 2-(4-bromo-phenylamino)-4-methyl-thiazole-5-carboxylic acid (naphtalen-1-yl-methyl)-amide]", "values": [{"measurement": "IC50", "setting": "[4]", "result": 1.07, "unit": "µM"}, {"measurement": "IC50", "setting": "[3]", "result": 1.07, "unit": "µM"}]}
{"compound": "COc1ccccc1Nc1nc(C)c(C(=O)N[C@@H]2CCC[C@H]2OCc2ccccc2)s1", "note": "[Compound 31, 2-(2-methoxy-phenylamino)-4-methyl-thiazole-5-carboxylic acid (1R,2R)-2-(benzyloxycyclopent-1-yl) amide]", "values": [{"measurement": "IC50", "setting": "[3]", "result": 2.91, "unit": "µM"}]}
{"compound": "COc1ccccc1Nc1nccc(C(=O)N[C@H]2CCC[C@@H]2OCc2ccccc2)n1", "note": "[Compound 76, 2-(2-methoxy-phenylamino)-pyrimidine-4-carboxylic acid ((1S,2S)-2-benzyloxycyclopent-1-yl) amide]", "values": [{"measurement": "remaining activity at 1 µM", "setting": "[1]", "result": 62, "unit": "%"}, {"measurement": "remaining activity at 1 µM", "setting": "[2]", "result": 99, "unit": "%"}]}
{"compound": "COc1cccc([C@@H](C)NC(=O)c2sc(Nc3cc(Cl)ccc3OC)nc2C)c1", "note": "[Compound 34]", "values": [{"measurement": "IC50", "setting": "[3]", "result": 1.62, "unit": "µM"}]}
{"compound": "Cc1nc(Nc2ccc3occc3c2)sc1C(=O)N[C@H]1CCC[C@@H]1OCc1ccccc1", "note": "[Compound 126, 2-(benzofuran-5-ylamino)-4-methyl-thiazole-5-carboxylic acid ((1S,2S)-2-benzyloxycyclopent-1-yl) amide]", "values": [{"measurement": "remaining activity at 1 µM", "setting": "[1]", "result": 58, "unit": "%"}, {"measurement": "remaining activity at 1 µM", "setting": "[2]", "result": 89, "unit": "%"}]}
{"compound": "Cc1nc(Nc2ccc(Br)cc2)sc1C(=O)NCc1ccc(F)c(C(F)(F)F)c1", "note": "[Compound 63, 2-(4-bromo-phenylamino)-4-methyl-thiazole-5-carboxylic acid 4-fluoro-3-trifluoromethyl-benzylamide]", "values": [{"measurement": "IC50", "setting": "[3]", "result": 0.16, "unit": "µM"}]}
{"compound": "Cc1nc(Nc2ccc(Br)cc2)sc1C(=O)NCc1ccc(N(C)C)cc1", "note": "[Compound 64, 2-(4-bromo-phenylamino)-4-methyl-thiazole-5-carboxylic acid 4-dimethylamino-benzylamide]", "values": [{"measurement": "IC50", "setting": "[3]", "result": 0.83, "unit": "µM"}]}
{"compound": "Cc1nc(Sc2ccccc2)sc1C(=O)N[C@H]1CCC[C@@H]1OCc1ccccc1", "note": "[Compound 81, 4-methyl-2-phenylsulfanyl-thiazole-5-carboxylic acid ((1S,2S)-2-benzyloxycyclopent-1-yl) amide]", "values": [{"measurement": "remaining activity at 1 µM", "setting": "[1]", "result": 51, "unit": "%"}, {"measurement": "remaining activity at 1 µM", "setting": "[2]", "result": 90, "unit": "%"}]}
{"compound": "COc1ccccc1Nc1nc(C)c(C(=O)NCc2ccc(N(C)C)cc2)s1", "note": "[Compound 105, 2-(2-methoxy-phenylamino)-4-methyl-thiazole-5-carboxylic acid 4-dimethylamino-benzylamide]", "values": [{"measurement": "remaining activity at 1 µM", "setting": "[1]", "result": 61, "unit": "%"}, {"measurement": "remaining activity at 1 µM", "setting": "[2]", "result": 77, "unit": "%"}]}
{"compound": "Cc1nc(Nc2cccc3cccnc23)sc1C(=O)N[C@H]1CCC[C@@H]1OCc1ccccc1", "note": "[Compound 94, 4-methyl-2-(quinolin-8-ylamino)-thiazole-5-carboxylic acid ((1S,2S)-2-benzyloxycyclopent-1-yl) amide]", "values": [{"measurement": "remaining activity at 1 µM", "setting": "[1]", "result": 49, "unit": "%"}, {"measurement": "remaining activity at 1 µM", "setting": "[2]", "result": 89, "unit": "%"}]}
{"compound": "COc1cc(CNC(=O)c2sc(Nc3ccc(Br)cc3)nc2C)cc(OC)c1", "note": "[Compound 65, 2-(4-bromo-phenylamino)-4-methyl-thiazole-5-carboxylic acid 3,5-dimethoxy-benzylamide]", "values": [{"measurement": "IC50", "setting": "[3]", "result": 0.18, "unit": "µM"}]}
{"compound": "Cc1nc(Nc2ccc(Cl)cc2)sc1C(=O)N[C@@H]1CCC[C@H]1OCc1ccccc1", "note": "[Compound 30, 2-(4-chloro-phenylamino)-4-methyl-thiazole-5-carboxylic acid (1R,2R)-2-(benzyloxycyclopent-1-yl) amide]", "values": [{"measurement": "IC50", "setting": "[4]", "result": 1.25, "unit": "µM"}, {"measurement": "IC50", "setting": "[3]", "result": 1.25, "unit": "µM"}]}
{"compound": "Cc1nc(Nc2ccc3c(c2)OCCO3)sc1C(=O)N[C@H]1CCC[C@@H]1OCc1ccccc1", "note": "[Compound 95]", "values": [{"measurement": "remaining activity at 1 µM", "setting": "[1]", "result": 61, "unit": "%"}, {"measurement": "remaining activity at 1 µM", "setting": "[2]", "result": 91, "unit": "%"}]}
{"compound": "Cc1nc(Nc2ccc(Br)cc2)sc1C(=O)N[C@H](C)c1ccc2ccccc2c1", "note": "[Compound 19, 2-(4-bromo-phenylamino)-4-methyl-thiazole-5-carboxylic acid (R)-1-(naphthalen-2-yl)ethyl amide]", "values": [{"measurement": "IC50", "setting": "[3]", "result": 2.72, "unit": "µM"}]}
{"compound": "Cc1nc(Nc2ccc(Br)cc2)sc1C(=O)N[C@@H](C)c1ccc2ccccc2c1", "note": "[Compound 18, 2-(4-bromo-phenylamino)-4-methyl-thiazole-5-carboxylic acid (S)-1-(naphthalen-2-yl)ethyl amide]", "values": [{"measurement": "IC50", "setting": "[3]", "result": 3.85, "unit": "µM"}]}
{"compound": "Cc1nc(Nc2ccc(F)cc2)sc1C(=O)N[C@H](C)c1ccc2ccccc2c1", "note": "[Compound 16, 2-(4-fluoro-phenylamino)-4-methyl-thiazole-5-carboxylic acid (R)-1-(naphthalen-2-yl)ethyl amide]", "values": [{"measurement": "IC50", "setting": "[3]", "result": 1.84, "unit": "µM"}]}
{"compound": "COc1ccccc1Nc1ccc(C(=O)N[C@H]2CCC[C@@H]2OCc2ccccc2)s1", "note": "[Compound 75, 2-(2-methoxy-phenylamino)-thiophene-5-carboxylic acid ((1S,2S)-2-benzyloxycyclopent-1-yl) amide]", "values": [{"measurement": "remaining activity at 1 µM", "setting": "[1]", "result": 41, "unit": "%"}, {"measurement": "remaining activity at 1 µM", "setting": "[2]", "result": 81, "unit": "%"}]}
{"compound": "Cc1nc(Nc2ccc(Cl)cc2)sc1C(=O)N[C@@H](C)c1ccc2ccccc2c1", "note": "[Compound 54, 2-(4-chloro-phenylamino)-4-methyl-thiazole-5-carboxylic acid (S)-1-(2-naphtalen-2-yl-ethyl)-amide]", "values": [{"measurement": "IC50", "setting": "[4]", "result": 2.41, "unit": "µM"}, {"measurement": "IC50", "setting": "[3]", "result": 2.41, "unit": "µM"}]}
{"compound": "Cc1nc(Nc2cccc3ccccc23)sc1C(=O)N[C@H]1CCC[C@@H]1OCc1ccccc1", "note": "[Compound 93]", "values": [{"measurement": "remaining activity at 1 µM", "setting": "[1]", "result": 62, "unit": "%"}, {"measurement": "remaining activity at 1 µM", "setting": "[2]", "result": 89, "unit": "%"}]}
{"compound": "COc1ccccc1Nc1nc(C)c(C(=O)N[C@@H](C)c2ccc3ccccc3c2)s1", "note": "[Compound 55, 2-(2-methoxy-phenylamino)-4-methyl-thiazole-5-carboxylic acid (S)-1-(2-naphtalen-2-yl-ethyl)-amide]", "values": [{"measurement": "IC50", "setting": "[3]", "result": 2.02, "unit": "µM"}]}
